# Test results as given in patent US10300058B2, “Tyrosine kinase inhibitor and uses thereof” (Xuanzhu Pharma Co., Ltd., priority 2014, dated 2019).
# pIC50: −log10 of the molar value.
# Columns and labels:
# wild-type EGFR (WT EGFR) = wild-type EGFR (WT EGFR) (Homo sapiens (Human), UniProt P00533); assay: Mobility Shift Assay, in vitro enzyme-inhibiting activity, wild-type EGFR; assay type: biochemical; conditions: Km ATP
# Description: (§1) 1. Preparation of Reagents
# (§2) 2. Preparation of a Compound Solution
# (§3) (1) To the second well of a 96-well plate, 5 μL 10 mM compound (dissolved in DMSO) was added, and 95 μL 100% DMSO was added to prepare 100 μL 0.5 mM compound.
# (§4) (2) To other wells, 60 μL 100% DMSO was added. 20 μL compound from the second well was added to the third well, and 4-fold dilution was further performed to get 10 diluted concentrations.
# (§5) (3) To the first well and the twelfth well of the 96-well plate, 100 μL 100% DMSO was separately added, and the two wells were used as control wells.
# (§6) (4) 10 μL from each well of the 96-well plate was added to another 96-well plate, and 90 μL 1-fold kinase buffer was added.
# (§7) (5) 5 μL from the 96-well plate was added to another 384-well plate, for example, transferred from A1 well of the 96-well plate to A1 and A2 wells of the 384-well plate, and transferred from A2 well of the 96-well plate to A3 and A4 wells of the 384-well plate, and so on.
# (§8) To 384-well plate, 10 μL 2.5-fold enzyme solution was added, and incubated at room temperature for 10 min.
# (§9) (5) Kinase reaction and stop
# (§10) After incubation at 28° C. for a period of time (depending on kinase), 25 μL stop solution was added.
# (§11) 4. Data on percent conversion was read by Caliper.
# (§12) (1) Data on enzyme activity was obtained by Caliper program;
# (§13) (2) Inhibition rate of enzyme activity was calculated from the data on enzyme activity by the following formula: Inhibition rate(%)=(maximal value−the measured value of a test compound)/(maximal value-minimal value)×100,
# (§14) wherein, the maximal value represents the measured value of DMSO control; and the minimal value represents the measured value of blank control.
# (§15) (3) Calculation of IC50 value by XLFit excel.
# EGFR T790M = EGFR T790M (Homo sapiens (Human), UniProt P00533, T790M); assay: Mobility Shift Assay, in vitro enzyme-inhibiting activity, EGFR T790M; assay type: biochemical; conditions: for pIC50: Km ATP; for Selectivity (WT/T790M): ratio of IC50
# Description: as §1, §2, §3, §4, §5, §6, §7, §8, §9, §10, §11, §12, §13, §14, §15
# [1] = tested on: H1975 cell (EGFR-T790M/L858R double mutation); assay: In vitro cytologic activity, Celltiter-Glo, H1975 cells; assay type: cell-based, human; conditions: for pIC50: Homo sapiens, NCI-H1975, 72 h, 72 h, Celltiter-Glo; for Selectivity (A431/H1975): ratio of IC50
# Description: (§16) 1.1 Preparation of Cell Suspension
# (§17) Culture medium was removed from culture bottle;
# (§18) PBS was added to wash the cells; • pancreatin was added for digestion, and the cells were collected by centrifugation; • the cells were resuspended in a culture medium containing 10% fetal bovine serum, counted and adjusted to a concentration of 2×10^4/mL or 3×10^4/mL (cell viability must be greater than 90%); • the cell suspension was added to a 96-well plate, at 100 μL for each well, i.e., 2000/well for H1975 cell; 3000/well for A431 cell; and • the cells were cultured at 37° C. in 5% CO2 incubator overnight.
# (§19) Dilution of a compound in DMSO (or water for injection) • (1) The compound was 5-fold diluted with DMSO from 10 mM to 2 mM, and then 4-fold diluted from 2 mM, to get 10 concentrations; • High control (HC, control without compound inhibition): 0.5% DMSO; • Low control (LC, control with compound inhibition): 1000 nM.
# (§20) i. To each well, 99 μL growth medium containing 10% FBS was added, and then 1 μL diluted compound was added, the total volume of the well was […], and the final concentration of the compound was measured.
# (§21) The test plate was left at room temperature, and equilibrated for 30 min. 80 μL culture medium was discarded. 60 μL CTG reagent (Celltiter-Glo kit) was added, and shaked for 2 min in a fast shaker, and was placed at room temperature for 10 min. The values were read by Envision instrument.
# [2] = tested on: A431 cell (wild-type EGFR gene); assay: In vitro cytologic activity, Celltiter-Glo, A431 cells; assay type: cell-based; conditions: Homo sapiens, A-431, 72 h
# Description: as §16, §17, §18, §19, §20, §21
# [3] = Pharmacokinetics in nude mouse; assay type: in vivo; conditions: female, BALB/c nude, plasma
# Description: Test animal: female nude mouse (BALB/c), weight: 20-25 g/mouse.
# Solvent for intraveneous injection (iv): 5% DMSO+10% PEG400+85% (28% HP-β-CD)
# Solvent for intragastric administration (po): 2% HPC+0.1% Tween 80
# 0.1283 mL and 0.1059 mL 1M hydrochloric acid solution were separately added to adjust pH to 4.
# Compound 2, 27: Compound 27 (3.18 mg) and Compound 2 (3.17 mg) were weighed, respectively, and solvent for intraveneous injection was added to prepare a clear and transparent solution at a theoretical concentration of 1.0 mg/mL.
# After homogeneous dispersion, a suspension at a theoretical concentration of 1.0 mg/mL was obtained.
# Collection time point: 0.083 h, 0.25 h, 0.5 h, 1 h, 2 h, 4 h, 6 h, 8 h after administration.
# 60 μL whole blood was collected from intraocular canthus at each time point, and was centrifuged at 8000 r/min for 6 min in a low-temperature centrifuge to separate plasma; the plasma was stored in a refrigerator at −80° C.
# The plasma sample of Compound 2 was analyzed by means of protein precipitation: 10 μL plasma was transferred to a 1.5 mL EP tube, 10 μL blank plasma was added, and the mixture was mixed homogeneously under vortexing. 200 μL internal standard (acetonitrile solution containing 25 ng/mL CNX-2006) was added; the resultant mixture was vortexted for 3 min, and then centrifuged at 12000 rpm for 5 min; 150 μL supernatant was accurately taken, to which 50 μL purified water was added. The resultant mixture was vortexed for 3 min and analyzed by LC-MS/MS.
# [4] = tested on: H1975 human non-small cell lung cancer xenograft; assay: Pharmacodynamics in vivo, H1975 xenograft tumor-bearing nude mice; set-up: species or system BALB/c nude mouse; conditions: PO; for TV (tumor volume) / Body weight After administration / Body weight Before administration: mean ± standard error
# Text: Genus: Rodent, Line: BALB/c nude, age: 6-8 weeks, gender: female, body weight: 18-22 g. Provider of experimental animals: Beijing Ankaiyibo Biological Technology Co. Ltd., Production license No. SCXK(Jing) 2012-0009. Quality Certificate No. 11402400000256 […] The tumor cells in logarithmic growth phase were used in tumor inoculation in vivo. […] When the tumor grew into a volume of about 100 mm^3, the animals were grouped and administered, 8 mice per group. […] Test compound solutions were prepared immediately before administration every day. [table] Vernier caliper was used to measure the volume of tumor twice a week. The long diameter and short diameter of tumor were measured. The volume was calculated by the formula: volume=0.5×long diameter×short diameter^2. According to the measurement results, relative tumor volume (RTV) and relative tumor volume increasing rate (T/C) were calculated. RTV=Vt/V0, wherein Vt is the average value of tumor volume on day t after grouping and administration, V0 is the average value of tumor volume at the day when grouping. T/C=TRTV/CRTV×100%, wherein TRTV is the RTV in the treatment group, and CRTV is the RTV in the solvent control group. […] One-Way ANOVA test was carried out by SPSS17.0 statistic software. Tumor volume was analysed in statistics among groups. P<0.05 is indicative of significant difference.
# EGFR L858R = EGFR L858R (Homo sapiens (Human), UniProt P00533, L858R); assay: Mobility Shift Assay, in vitro enzyme-inhibiting activity, EGFR L858R; assay type: biochemical; conditions: Table 6
# Description: as §1, §2, §3, §4, §5, §6, §7, §8, §9, §10, §11, §12, §13, §14, §15
# EGFR T790M-L858R = EGFR T790M-L858R (Homo sapiens (Human), UniProt P00533, L858R/T790M); assay: Mobility Shift Assay, in vitro enzyme-inhibiting activity, EGFR T790M-L858R; assay type: biochemical; conditions: Table 6
# Description: as §1, §2, §3, §4, §5, §6, §7, §8, §9, §10, §11, §12, §13, §14, §15
# EGFR (d746-750) = EGFR (d746-750) (Homo sapiens (Human), UniProt P00533, DEL746-750); assay: Mobility Shift Assay, in vitro enzyme-inhibiting activity, EGFR (d746-750); assay type: biochemical; conditions: Table 6
# Description: as §1, §2, §3, §4, §5, §6, §7, §8, §9, §10, §11, §12, §13, §14, §15
# EGFR (d746-750)-T790M = EGFR (d746-750)-T790M (Homo sapiens (Human), UniProt P00533, DEL746-750/T790M); assay: Mobility Shift Assay, in vitro enzyme-inhibiting activity, EGFR (d746-750)-T790M; assay type: biochemical; conditions: Table 6
# Description: as §1, §2, §3, §4, §5, §6, §7, §8, §9, §10, §11, §12, §13, §14, §15
# EGFR T790M, sequence (P00533 25-1210 T790M): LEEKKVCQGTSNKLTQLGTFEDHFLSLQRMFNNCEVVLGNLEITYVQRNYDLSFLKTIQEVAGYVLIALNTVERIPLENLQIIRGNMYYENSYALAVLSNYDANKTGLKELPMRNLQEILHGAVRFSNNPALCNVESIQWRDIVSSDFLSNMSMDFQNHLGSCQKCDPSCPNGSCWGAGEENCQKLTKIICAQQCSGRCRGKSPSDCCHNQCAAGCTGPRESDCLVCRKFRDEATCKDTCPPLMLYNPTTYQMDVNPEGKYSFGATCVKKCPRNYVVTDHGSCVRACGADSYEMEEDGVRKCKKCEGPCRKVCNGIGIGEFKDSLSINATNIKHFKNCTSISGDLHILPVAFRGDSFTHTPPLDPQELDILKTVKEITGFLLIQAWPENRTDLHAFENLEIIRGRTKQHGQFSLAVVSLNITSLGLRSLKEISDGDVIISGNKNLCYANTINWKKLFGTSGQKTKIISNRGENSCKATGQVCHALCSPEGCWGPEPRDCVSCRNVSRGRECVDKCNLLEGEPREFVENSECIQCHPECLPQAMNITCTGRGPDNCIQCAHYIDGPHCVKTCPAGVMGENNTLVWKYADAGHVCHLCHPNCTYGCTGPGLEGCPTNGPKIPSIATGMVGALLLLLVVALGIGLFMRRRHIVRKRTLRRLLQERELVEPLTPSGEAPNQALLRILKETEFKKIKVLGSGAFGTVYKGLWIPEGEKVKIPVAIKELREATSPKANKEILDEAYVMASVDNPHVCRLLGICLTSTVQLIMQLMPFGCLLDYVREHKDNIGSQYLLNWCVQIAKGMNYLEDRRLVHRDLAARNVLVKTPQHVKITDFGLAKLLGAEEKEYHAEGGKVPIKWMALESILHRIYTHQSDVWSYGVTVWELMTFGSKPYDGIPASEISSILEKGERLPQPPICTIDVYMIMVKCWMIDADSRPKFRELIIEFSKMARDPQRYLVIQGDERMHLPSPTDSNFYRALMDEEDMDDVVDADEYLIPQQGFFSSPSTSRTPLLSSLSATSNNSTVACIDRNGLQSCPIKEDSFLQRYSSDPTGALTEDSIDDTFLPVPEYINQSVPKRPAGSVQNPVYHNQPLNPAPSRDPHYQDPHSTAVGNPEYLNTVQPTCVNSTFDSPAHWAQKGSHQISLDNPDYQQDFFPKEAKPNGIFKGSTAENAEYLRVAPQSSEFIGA
# EGFR (d746-750), sequence (P00533 other isoform, or with tags, fused parts or gaps del 1-668/del 746-750 limits assumed): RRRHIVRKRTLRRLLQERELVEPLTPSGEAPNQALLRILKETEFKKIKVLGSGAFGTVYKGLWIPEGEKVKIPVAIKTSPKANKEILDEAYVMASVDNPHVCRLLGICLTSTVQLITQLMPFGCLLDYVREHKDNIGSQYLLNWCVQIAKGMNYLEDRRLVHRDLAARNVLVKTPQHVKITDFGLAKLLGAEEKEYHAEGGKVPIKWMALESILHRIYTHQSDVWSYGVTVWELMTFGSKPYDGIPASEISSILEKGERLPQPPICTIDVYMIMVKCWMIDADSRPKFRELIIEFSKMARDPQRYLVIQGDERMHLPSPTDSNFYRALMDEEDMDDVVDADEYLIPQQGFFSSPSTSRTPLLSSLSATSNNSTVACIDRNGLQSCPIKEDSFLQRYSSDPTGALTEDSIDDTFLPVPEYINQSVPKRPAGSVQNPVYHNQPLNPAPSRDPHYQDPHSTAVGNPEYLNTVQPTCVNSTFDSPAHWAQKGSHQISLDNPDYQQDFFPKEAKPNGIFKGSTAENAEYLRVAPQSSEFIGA
# EGFR (d746-750)-T790M, sequence (P00533 other isoform, or with tags, fused parts or gaps T790M/del 1-668/del 746-750 limits assumed): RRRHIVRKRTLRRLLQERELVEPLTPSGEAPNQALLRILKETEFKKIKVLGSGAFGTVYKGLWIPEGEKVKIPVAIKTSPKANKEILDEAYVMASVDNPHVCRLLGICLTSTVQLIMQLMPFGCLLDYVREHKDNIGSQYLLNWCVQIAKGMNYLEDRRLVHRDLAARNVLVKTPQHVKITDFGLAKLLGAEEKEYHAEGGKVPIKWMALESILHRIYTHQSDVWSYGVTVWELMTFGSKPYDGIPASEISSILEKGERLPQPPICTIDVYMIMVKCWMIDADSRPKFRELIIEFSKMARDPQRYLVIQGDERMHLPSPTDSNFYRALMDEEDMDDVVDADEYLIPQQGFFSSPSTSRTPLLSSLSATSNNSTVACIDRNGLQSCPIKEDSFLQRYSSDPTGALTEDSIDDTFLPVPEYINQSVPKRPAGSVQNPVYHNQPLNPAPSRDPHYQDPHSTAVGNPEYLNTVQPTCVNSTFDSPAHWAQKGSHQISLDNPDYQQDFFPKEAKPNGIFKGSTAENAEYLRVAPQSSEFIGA
# wild-type EGFR (WT EGFR), sequence (P00533 25-1210): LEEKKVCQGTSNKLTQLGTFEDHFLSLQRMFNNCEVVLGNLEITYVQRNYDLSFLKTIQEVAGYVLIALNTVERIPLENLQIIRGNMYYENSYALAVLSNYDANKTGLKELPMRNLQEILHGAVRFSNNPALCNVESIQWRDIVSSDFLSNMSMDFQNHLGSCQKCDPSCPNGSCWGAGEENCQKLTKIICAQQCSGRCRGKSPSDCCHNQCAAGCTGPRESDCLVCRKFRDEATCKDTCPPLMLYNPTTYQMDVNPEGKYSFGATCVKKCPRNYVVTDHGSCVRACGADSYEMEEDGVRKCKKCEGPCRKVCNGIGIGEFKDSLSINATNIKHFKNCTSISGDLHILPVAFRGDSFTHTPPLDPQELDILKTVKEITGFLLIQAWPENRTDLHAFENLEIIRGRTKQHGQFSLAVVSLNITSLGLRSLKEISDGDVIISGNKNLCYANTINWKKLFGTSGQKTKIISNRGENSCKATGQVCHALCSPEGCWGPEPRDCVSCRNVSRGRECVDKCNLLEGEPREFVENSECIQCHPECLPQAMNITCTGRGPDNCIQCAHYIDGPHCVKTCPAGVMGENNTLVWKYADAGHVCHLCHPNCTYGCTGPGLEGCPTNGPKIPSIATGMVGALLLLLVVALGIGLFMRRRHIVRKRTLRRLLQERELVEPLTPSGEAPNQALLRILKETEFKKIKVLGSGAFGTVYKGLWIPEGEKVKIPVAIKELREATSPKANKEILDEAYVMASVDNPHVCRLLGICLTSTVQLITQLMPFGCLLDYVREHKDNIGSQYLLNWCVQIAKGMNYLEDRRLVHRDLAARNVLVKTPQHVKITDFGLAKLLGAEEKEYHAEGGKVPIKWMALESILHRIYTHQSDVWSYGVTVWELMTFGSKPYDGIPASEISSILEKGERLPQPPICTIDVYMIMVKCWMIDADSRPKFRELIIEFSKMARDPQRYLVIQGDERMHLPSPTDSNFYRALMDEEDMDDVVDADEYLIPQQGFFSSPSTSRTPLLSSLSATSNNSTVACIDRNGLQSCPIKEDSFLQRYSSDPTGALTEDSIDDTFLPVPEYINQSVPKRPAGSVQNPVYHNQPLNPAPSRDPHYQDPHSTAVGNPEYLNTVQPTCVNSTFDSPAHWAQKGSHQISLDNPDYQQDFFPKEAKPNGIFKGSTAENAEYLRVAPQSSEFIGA
# EGFR T790M-L858R, sequence (P00533 25-1210 T790M/L858R): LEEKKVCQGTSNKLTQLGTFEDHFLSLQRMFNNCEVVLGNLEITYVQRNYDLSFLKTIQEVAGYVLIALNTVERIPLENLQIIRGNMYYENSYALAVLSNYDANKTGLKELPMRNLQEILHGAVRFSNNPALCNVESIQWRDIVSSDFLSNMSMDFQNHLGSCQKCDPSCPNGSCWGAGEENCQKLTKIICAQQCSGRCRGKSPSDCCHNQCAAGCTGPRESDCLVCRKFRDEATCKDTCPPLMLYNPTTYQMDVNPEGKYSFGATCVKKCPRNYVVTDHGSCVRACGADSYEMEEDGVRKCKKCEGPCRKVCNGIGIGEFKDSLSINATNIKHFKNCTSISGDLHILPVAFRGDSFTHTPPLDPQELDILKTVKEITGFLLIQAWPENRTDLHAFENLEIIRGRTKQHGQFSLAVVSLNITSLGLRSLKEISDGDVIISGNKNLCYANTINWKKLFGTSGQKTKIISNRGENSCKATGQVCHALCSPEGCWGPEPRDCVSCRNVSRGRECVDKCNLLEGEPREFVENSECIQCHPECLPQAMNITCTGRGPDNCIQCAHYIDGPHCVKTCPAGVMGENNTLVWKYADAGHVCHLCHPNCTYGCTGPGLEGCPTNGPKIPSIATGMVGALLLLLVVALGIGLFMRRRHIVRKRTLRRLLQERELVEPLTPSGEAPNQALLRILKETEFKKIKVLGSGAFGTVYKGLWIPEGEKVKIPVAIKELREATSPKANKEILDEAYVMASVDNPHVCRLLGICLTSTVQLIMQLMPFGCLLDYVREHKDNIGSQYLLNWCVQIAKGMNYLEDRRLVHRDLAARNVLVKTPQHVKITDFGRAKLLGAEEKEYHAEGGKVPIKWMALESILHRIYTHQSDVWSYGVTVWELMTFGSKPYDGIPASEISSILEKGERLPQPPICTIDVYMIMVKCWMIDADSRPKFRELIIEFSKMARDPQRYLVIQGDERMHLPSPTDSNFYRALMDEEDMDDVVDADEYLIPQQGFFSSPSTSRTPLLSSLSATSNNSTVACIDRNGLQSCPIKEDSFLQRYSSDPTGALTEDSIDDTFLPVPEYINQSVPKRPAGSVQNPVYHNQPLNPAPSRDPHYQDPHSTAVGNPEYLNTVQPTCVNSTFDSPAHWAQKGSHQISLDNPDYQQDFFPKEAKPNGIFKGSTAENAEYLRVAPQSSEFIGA
structure (smiles),measurement,setting,value
"C=CC(=O)Nc1cccc(Nc2nc(Nc3ccc(OCCCS(C)(=O)=O)cc3OC)ncc2C(F)(F)F)c1 [Compound 43, N-(3-((2-((2-methoxy-4-(3-(methylsulfonyl)propoxy)phenyl)amino)-5-(trifluoromethyl)pyrimidin-4-yl)amino)phenyl)acrylamide]",pIC50,"wild-type EGFR (WT EGFR); Table 4, unit inferred",6.80
same,pIC50,"EGFR T790M; Table 4, unit inferred",8.44
same,Selectivity (WT/T790M),EGFR T790M; Table 4,44.2
same,pIC50,"[1]; Table 10, unit inferred",6.37
same,Selectivity (A431/H1975),[1]; Table 10,6.1
same,pIC50,"[2]; Table 10, unit inferred",5.58
"C=CC(=O)Nc1cccc(Nc2nc(Nc3ccc(N4CCN(C(C)=O)CC4)cc3OC)ncc2C(F)(F)F)c1 [CO-1686, reference compound]",pIC50,[1]; Table 9,6.97
same,pIC50,"[1]; Table 10, unit inferred",6.33
same,pIC50,[2]; Table 9,6.04
same,pIC50,"[2]; Table 10, unit inferred",5.65
same,AUC(0-t),"[3]; iv, 5 mg/kg",4.07 µg·h/mL
same,clearance,"[3]; iv, 5 mg/kg",1.23 L/h/kg
same,AUC(0-t),"[3]; po, 13.2 mg/kg",2.38 µg·h/mL
same,bioavailability,"[3]; po, 13.2 mg/kg, read-out: F (absolute bioavailability)",22.1%
same,TGI (tumor growth-inhibiting rate),"[4]; Table 17, 30 mg/kg",38.8%
same,TV (tumor volume),"[4]; Table 17, 30 mg/kg, 19 days after inoculation",666 ± 30 mm^3
same,Body weight After administration,"[4]; Table 17, 30 mg/kg",22.1 ± 0.3 g
same,Body weight Before administration,"[4]; Table 17, 30 mg/kg",20.6 ± 0.3 g
same,TGI (tumor growth-inhibiting rate),"[4]; Table 17, 100 mg/kg",71.2%
same,TV (tumor volume),"[4]; Table 17, 100 mg/kg, 19 days after inoculation",317 ± 44 mm^3
same,Body weight After administration,"[4]; Table 17, 100 mg/kg",21.5 ± 0.5 g
same,Body weight Before administration,"[4]; Table 17, 100 mg/kg",20.6 ± 0.4 g
same,TGI (tumor growth-inhibiting rate),"[4]; Table 18, 10 mg/kg, QD × 18",30.8%
same,TV (tumor volume),"[4]; Table 18, 10 mg/kg, QD × 18, 23 days after inoculation",729 ± 78 mm^3
same,Body weight After administration,"[4]; Table 18, 10 mg/kg, QD × 18",22.4 ± 0.5 g
same,Body weight Before administration,"[4]; Table 18, 10 mg/kg, QD × 18",20.7 ± 0.4 g
same,TGI (tumor growth-inhibiting rate),"[4]; Table 18, 30 mg/kg, QD × 18",55.4%
same,TV (tumor volume),"[4]; Table 18, 30 mg/kg, QD × 18, 23 days after inoculation",485 ± 65 mm^3
same,Body weight After administration,"[4]; Table 18, 30 mg/kg, QD × 18",22.4 ± 0.3 g
same,Body weight Before administration,"[4]; Table 18, 30 mg/kg, QD × 18",21.8 ± 0.3 g
"C=CC(=O)Nc1cccc(Nc2nc(Nc3ccc(C4CCN(C)C(=O)C4)cc3OC)ncc2C(F)(F)F)c1 (centres unmarked) [Compound 21, N-(3-((2-((2-methoxy-4-(1-methyl-2-oxopiperidin-4-yl)phenyl)amino)-5-(trifluoromethyl)pyrimidin-4-yl)amino)phenyl)acrylamide]",pIC50,wild-type EGFR (WT EGFR); Table 6,6.63
same,pIC50,EGFR T790M; Table 6,8.46
same,Selectivity (WT/T790M),EGFR T790M; Table 6,67.4
same,pIC50,EGFR L858R; Km ATP,7.46
same,Selectivity WT/L858R,EGFR L858R; ratio of IC50,6.7
same,pIC50,EGFR T790M-L858R; Km ATP,8.48
same,Selectivity WT/T790M-L858R,EGFR T790M-L858R; ratio of IC50,71.5
same,pIC50,EGFR (d746-750); Km ATP,7.55
same,Selectivity WT/d746-750,EGFR (d746-750); ratio of IC50,8.4
same,pIC50,"EGFR (d746-750)-T790M; Km ATP, read-out: IC50 EGFR (d746-750)-T790M",8.46
same,Selectivity WT/(d746-750)-T790M,EGFR (d746-750)-T790M; ratio of IC50,67.4
same,pIC50,"[1]; Table 10, unit inferred",6.68
same,Selectivity (A431/H1975),[1]; Table 10,11.9
same,pIC50,"[2]; Table 10, unit inferred",5.60
